From patent US5461057A, “Hydro-ethano-indeno-pyridines” (priority 1994, dated 1995)
pIC50: −log10 of the molar value. Read-outs that look alike come from different tables or passages of the source.

Legend:
[1] = system: B16-F10 mouse melanoma cell adhesion to fibronectin; assay: B16-F10 melanoma cell adhesion to fibronectin; assay type: cell-based; conditions: read-out: B16 FN IC50
Description: (§1) Adhesion assays were run essentially as described previously (Pai et al., J. Biomed. Res. 2: 53, 1992). 96-well plates were coated with human fibronectin (140 ng/well), human vitronectin (75 ng/well), human collagen I (100 ng/well), human collagen IV (100 ng/well), human fibrinogen (1 μg/well), murine laminin (600 ng/well), or polylysine, and incubated overnight in a humidified 37° C. incubator. Excess fibronectin or other substrate was then removed and 0.2 ml of 2 mg/ml bovine serum albumin (BSA)in Dulbecco's phosphate-buffered saline (DPBS) was added to each well, incubated for 2 hours at 37° C., and removed. LOX human melanoma cells, M27 murine lung carcinoma cells or B16F10 mouse melanoma cells were detached from tissue culture flasks with RPMI medium containing 0.2M urea and 10 mM EDTA, and 0.18 ml of cells were added to each well to a final cell concentration of 1×10^5 cells/well. For inhibition studies 20 μl of 10× compound was added to the wells prior to cell addition. Cells were allowed to adhere for 1 hour at 37° C. The wells were then gently washed twice with 0.2 ml DPBS. The fluorescent dye calcein AM (Molecular Probes, Eugene Oreg.) in DPBS (0.1 ml of 1 μM) was added to each well, and the plates were incubated for 1 hour at room temperature. Adherent cells were quantitated by reading the fluorescence on a Cytofluor 2300 fluorescent plate reader (Millipore) at 485 nm excitation and 530 nm emission.

[2] = system: M27 murine lung carcinoma cell adhesion to fibronectin; assay: M27 lung carcinoma cell adhesion to fibronectin; assay type: cell-based; conditions: Mus musculus; read-out: M27 FN IC50
Description: as §1

[3] = Calcein cytotoxicity assay; assay type: cell-based; conditions: human, lox melanoma cells, calcein AM assay; for CC50 at 2 h: read-out: 2 Hr Tox LD50
[4] = target: ELAM-1 (Homo sapiens, UniProt P16581); assay: cell-based
Sequence of ELAM-1 (P16581 22-610): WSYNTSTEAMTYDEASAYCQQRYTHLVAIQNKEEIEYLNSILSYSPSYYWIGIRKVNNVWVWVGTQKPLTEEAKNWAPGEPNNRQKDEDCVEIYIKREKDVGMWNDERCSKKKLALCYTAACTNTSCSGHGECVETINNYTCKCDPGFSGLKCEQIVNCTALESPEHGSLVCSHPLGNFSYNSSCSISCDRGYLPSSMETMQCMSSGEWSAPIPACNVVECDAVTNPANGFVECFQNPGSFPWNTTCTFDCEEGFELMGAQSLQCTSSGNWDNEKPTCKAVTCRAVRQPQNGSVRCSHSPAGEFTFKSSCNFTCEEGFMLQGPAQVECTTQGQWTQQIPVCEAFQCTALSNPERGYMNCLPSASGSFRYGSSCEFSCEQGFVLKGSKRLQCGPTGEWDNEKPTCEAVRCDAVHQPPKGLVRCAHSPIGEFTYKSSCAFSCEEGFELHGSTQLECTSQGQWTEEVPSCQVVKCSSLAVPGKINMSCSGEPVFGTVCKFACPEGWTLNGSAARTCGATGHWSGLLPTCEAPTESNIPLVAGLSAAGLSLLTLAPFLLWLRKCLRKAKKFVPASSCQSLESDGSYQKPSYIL
Description: Cell adhesion to ELAM-1 was measured essentially as described previously (Pal et al., J. Biomed. Res. 2: 53, 1992). Undifferentiated HL-60 leukemia cells were prelabelled for 30 minutes with 1 μM calcein AM in DPBS without calcium or magnesium, and the cells were washed twice with the same medium before addition to 96-well plates containing monolayers of mouse L cells (5×10^4 cells/well) transfected with cDNA for the adhesion molecule ELAM-1. Adhesion was allowed to proceed for 30 minutes at room temperature before washing and quantitation of the remaining fluorescent HL-60 cells as described above.
ELAM-1 (E-selectin) is a member of the selectin class of adhesion molecules.

[5] = MTT cytotoxicity assay; assay type: cell-based; conditions: human, lox melanoma cells, read-out: MTT 1 Hr LD50
Description: LOX human melanoma cells, in RPMI medium with 2 mg/ml BSA and 25 mM HEPES, pH 7.4, were seeded at 4×10^4 cells/well in 96-well microtiter plates and grown overnight in a humidified 37° C. incubator. On the following day, the medium was aspirated and wells were washed once with 0.1 ml of DPBS. Compounds (0.1 ml) in DPBS were added to wells in quadruplicate at appropriate concentrations. The cells were then incubated with test compound for 1 hour at 37° C. Wells were aspirated and washed 2× with 0.1 ml DPBS. MTT [3-(4,5-Dimethylthiazol-2-yl)-2,5-diphenyltetrazolium bromide] (0.1 ml of 1 mg/ml solution in PBS from Sigma Chemical Co.) was added to each well and incubated for 2 hour at 37° C. MTT was aspirated and 0.1 ml of 50% N,N-dimethylformamide with 20% sodium dodecyl sulfate was added to each well. Plates were shaken for 10 minutes on a Titer-Plate shaker (Labline) at room temperature. Optical density was read at 570 nm with a plate-reading spectrophotometer (Dynatech MR5000).

[6] = system: LOX human melanoma cell adhesion to polylysine; assay: LOX melanoma cell adhesion to polylysine; assay type: cell-based; conditions: read-out: Poly Lys IC50
[7] = system: LOX human melanoma cells; assay: Tumor cell invasion through collagen/fibronectin coated membranes; assay type: cell-based
Description: […] Cell Invasion Through Collagen/Fibronectin Coated Membranes:
Nucleopore polycarbonate membranes (8 μm pore size) were coated with 0.05 ml of type I collagen and allowed to dry overnight. 210 μl of serum free DMEM with BSA was added to each Boyden chamber. Membranes were placed in chambers and upper chambers were screwed on. Human fibronectin (50 μl of 0.1 mg/ml solution in DMEM with BSA) was added to the top chamber and allowed to sit on membranes for 1 hour at room temperature. Compounds (50 μl) at 10× concentration in DMEM with BSA were added to the chambers. LOX melanoma cells were detached from flasks with trypsin/EDTA solution and resuspended in RPMI with 10% fetal bovine serum. Cells were centrifuged, washed 2× with DMEM with BSA, and resuspended in 10 ml of DMEM with BSA. LOX cells (0.45 ml of 7.8×10^5 cells per ml) were added to each chamber and chambers were incubated for 5 hours at 37° C. The medium was removed from the upper chamber by aspiration, the top chamber was unscrewed, and the membrane was removed. The membrane was inverted, pinned to a dissecting tray, and fixed with Diff Quik fixative for 3 minutes The fixative was then removed and Diff Quik Stain was added for 2 minutes. The stain was decanted and membranes were rinsed with distilled water. Membranes were inverted onto glass slides, and non-invading cells were wiped away with a cotton swab. Permount was added to the slide and the membrane was covered with a cover slip. The number of cells that invaded was quantitated on a Nikon TMS microscope with C-2 Image Analyzer software (Olympus Corp.).
The greater potency of the compounds in this assay (IC50 for compound B<400 nM) may result from the longer duration of this assay (5 hours) relative to the fibronectin adhesion assay (1 hour).

[8] = system: LOX human melanoma cell adhesion to human fibronectin; assay: LOX melanoma cell adhesion to fibronectin; assay type: cell-based; conditions: Homo sapiens, LOX; for inhibition at 10 µM: read-out: % Inhibition at 10 μM; for inhibition at 50 µM: read-out: % Inhibition at 50 μM
Procedure, shortened: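 Compound added to fibronectin-coated (140 ng/well), BSA-blocked wells before LOX cells (1×10^5/well, detached with urea/EDTA). Cells adhered 1 h at 37 °C, then washed. Adherent cells quantified by calcein AM fluorescence (485/530 nm); IC50 for adhesion inhibition.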

[9] = target: T1, ICAM-1 (Homo sapiens, UniProt P05362); assay: HL-60 cell adhesion to recombinant soluble ICAM-1; assay type: cell-based; conditions: HL-60 cells
T1 construct: recombinant soluble ICAM-1 (2 μg/well)
T1 sequence (P05362 28-480 limits assumed): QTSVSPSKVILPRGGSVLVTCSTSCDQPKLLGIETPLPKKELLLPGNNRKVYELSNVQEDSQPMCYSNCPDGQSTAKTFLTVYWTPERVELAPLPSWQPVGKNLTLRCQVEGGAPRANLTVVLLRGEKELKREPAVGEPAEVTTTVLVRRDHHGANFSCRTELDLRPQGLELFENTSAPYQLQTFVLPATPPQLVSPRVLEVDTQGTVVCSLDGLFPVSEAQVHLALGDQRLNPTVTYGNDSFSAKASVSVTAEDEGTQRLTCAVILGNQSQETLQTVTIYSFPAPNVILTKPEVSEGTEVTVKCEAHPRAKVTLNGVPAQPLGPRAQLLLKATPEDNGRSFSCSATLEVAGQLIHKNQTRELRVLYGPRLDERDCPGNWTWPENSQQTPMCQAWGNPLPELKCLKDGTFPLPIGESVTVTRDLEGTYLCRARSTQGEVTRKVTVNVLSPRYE
Description: For measurement of cell adhesion to ICAM-1, HL-60 human leukemia cells were induced to differentiate in the presence of DMSO for 6 days. Adhesion of DMSO-differentiated HL-60 cells to recombinant soluble ICAM-1 (2 μg/well) was measured as described above for LOX cell adhesion, except that the adhesion was allowed to proceed for 30 minutes, rather than 1 hour, at 37° C.
ICAM-1 is a cell surface adhesion molecule that participates in cell-cell adhesion interactions, rather than cell-matrix adhesion interactions.

[10] = system: histamine-induced dyspnea; assay: Bronchodilator (in vivo) Guinea Pig Dyspnea; conditions: 100 mg/kg, oral, one hour before histamine challenge
Procedure, shortened: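 Fasted, unanesthetized guinea pigs (250-350 g) received the test drug orally one hour before exposure to an aerosolized 0.1% histamine solution. Onset of dyspnea was recorded, and data were expressed as number tested over number survived.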

[11] = system: LOX human melanoma cell adhesion to human collagen I; assay: LOX cell adhesion to collagen I; assay type: cell-based; conditions: read-out: Collagen I IC50
Description: as §1

[12] = system: LOX human melanoma cell adhesion to human collagen IV; assay: LOX cell adhesion to collagen IV; assay type: cell-based; conditions: read-out: Collagen IV IC50
Description: as §1

[13] = system: LOX human melanoma cell adhesion to human vitronectin; assay: LOX cell adhesion to vitronectin; assay type: cell-based; conditions: read-out: Vitronectin IC50
Description: as §1

[14] = system: LOX human melanoma cell adhesion to human fibrinogen; assay: LOX cell adhesion to fibrinogen; assay type: cell-based; conditions: read-out: Fibrinogen IC50
Description: as §1

[15] = system: LOX human melanoma cell adhesion to murine laminin; assay: LOX cell adhesion to laminin; assay type: cell-based; conditions: read-out: Laminin IC50
Description: as §1

For `CSc1ccc(C2=C3CC4CCC(C3c3ccccc32)N4C)cc1` (centres unmarked) [F, 1SR:3RS:9b-1,3 Ethano-2-methy-5-(p-methylmercaptophenyl)-1,3,4,9b-tetrahydro-2H-indeno-(2h-indeno) [1,2-c]pyridine], the pIC50 [1] was 4.62, the pIC50 [2] was 5.06 and the CC50 at 2 h [3] was 43.3 µM. The CC50 at 6 h ([3]; 6 hours, read-out: 6 Hr Tox LD50) was 19.9 µM, the pIC50 [4] was < 4.30 and the CC50 at 1 h [5] was 51.7 µM. For the same compound, the pIC50 [6] was 4.61, the pIC50 ([7]; Homo sapiens, 5 hours, read-out: Invasion IC50) was 6.28 and the “inhibition of in vitro tumor cell invasion” value ([7]; fibronectin/collagen matrix) was “inhibit in vitro tumor cell invasion through a fibronectin/collagen matrix”. It also gave a pIC50 ([8]; 1 h, read-out: LOX FN IC50) of 5.29, an inhibition at 10 µM [8] of 49.4% and an inhibition at 50 µM [8] of 102%. It also gave a pIC50 [9] of 4.77 and a responders at 100 mg/kg ([10]; Cavia porcellus, 1 h, read-out: DYSP survivors (converted)) of 0%.

With `CN1C2CCC1C1C(=C(c3ccccc3C(F)(F)F)c3ccccc31)C2` (centres unmarked) [Compound S] the pIC50 [11] was 4.94, the pIC50 [12] was 4.72 and the CC50 at 2 h [3] was > 250 µM. The pIC50 [6] was < 3.60, the pIC50 [13] was 4.69 and the pIC50 [14] was 4.80. The inhibition at 10 µM ([8]; 10 μM) was -4.4%, the inhibition at 50 µM ([8]; 50 μM) was 90.2% and the pIC50 ([8]; Table 4, 1 hour adhesion, read-out: LOX FN IC50) was 4.75. The pIC50 ([8]; Table 5, read-out: Fibronectin IC50) was 4.75, the pIC50 [15] was 5.11 and the DYSP survivors [10] was 0/3.
